From ChEMBL document CHEMBL1144577, “1,5-Biaryl pyrrole derivatives as EP1 receptor antagonists. Structure-activity relationships of 6-substituted and 5,6-disubstituted benzoic acid derivatives” (Bioorg Med Chem Lett, 2007)
Blank lines part the entries; values can stand above or below the molecule they belong to.

Experiments:
[1] = target: T1, Prostaglandin E2 receptor EP1 subtype (Homo sapiens, UniProt P34995); assay: Displacement of [3H]PGE2 from human recombinant EP1 receptor expressed in CHOK1 cell membrane; assay type: cell membranes, CHO-K1
T1 sequence (P34995 whole entry): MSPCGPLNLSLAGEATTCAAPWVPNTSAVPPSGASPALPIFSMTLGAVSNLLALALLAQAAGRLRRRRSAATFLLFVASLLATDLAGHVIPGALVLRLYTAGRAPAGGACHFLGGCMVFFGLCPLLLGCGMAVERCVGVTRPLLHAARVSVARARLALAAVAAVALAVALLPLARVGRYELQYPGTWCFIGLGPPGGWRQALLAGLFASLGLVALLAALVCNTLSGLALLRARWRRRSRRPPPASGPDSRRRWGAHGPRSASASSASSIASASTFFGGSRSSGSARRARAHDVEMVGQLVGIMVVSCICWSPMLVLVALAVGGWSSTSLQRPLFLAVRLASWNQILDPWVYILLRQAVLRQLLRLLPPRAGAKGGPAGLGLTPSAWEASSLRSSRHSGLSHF

Rattus norvegicus [2] = assay: Reversal of hypersensitivity in po dosed FCA rat model of inflammatory pain; assay type: functional
[3] = Volume of distribution at steady state in rat; assay type: ADME, organism-based; details: in vivo, read-out: Vss
[4] = Blood clearance in rat; assay type: ADME, organism-based
[5] = Cmax in rat at 3 mg/kg, po; assay type: ADME, organism-based; parameters: dose 3 mg/kg, route oral; details: in vivo
Rattus norvegicus [6] = assay: Normalized AUC (0 to t) in rat at 3 mg/kg, po; assay type: ADME, organism-based; parameters: dose 3 mg/kg, route oral; details: in vivo
[7] = Tmax in rat at 3 mg/kg, po; assay type: ADME, organism-based; parameters: dose 3 mg/kg, route oral; details: in vivo
Rattus norvegicus [8] = assay: Reversal of hypersensitivity in FCA rat model of inflammatory pain at 5 mg/kg, po; assay type: functional

Vd [3]: 0.7 L/kg
clearance [4]: 42 mL/min/kg
Compound: Cc1ccc(-c2cc(Br)ccc2OCc2ccc(F)cc2)n1-c1cccc(C(=O)O)c1
ED50 (Rattus norvegicus [2]): 9.2 mg/kg

IC50 [1]: 1.26 nM
Compound: Cc1ccc(-n2c(C)ccc2-c2cc(Br)ccc2OCc2ccc(F)cc2F)cc1C(=O)O

IC50 [1]: 2.51 nM
Compound: Cc1ccc(-c2cc(Br)ccc2OCc2ccc(F)cc2)n1-c1ccc(Cl)c(C(=O)O)c1

IC50 [1]: 0.398 nM
Cmax [5]: 340 nM
AUC/dose (Rattus norvegicus [6]): 4 kg·min/L
Tmax [7]: 30 min
Compound: COc1ccc(-n2c(C)ccc2-c2cc(Br)ccc2OCc2ccc(F)cc2F)cc1C(=O)O

Second part, the molecule before the results:

Compound: Cc1ccc(-c2cc(Br)ccc2OCc2ccc(F)cc2F)n1-c1cc(C(=O)O)c2ccccc2c1
IC50 [1]: 2.51 nM

Compound: Cc1ccc(-c2cc(C(F)(F)F)ccc2OCc2ccccc2)n1-c1ccc(F)c(C(=O)O)c1
IC50 [1]: 2 nM
Cmax [5]: 870 nM
AUC/dose (Rattus norvegicus [6]): 27 kg·min/L
Tmax [7]: 36 min
Activity (Rattus norvegicus [8]): 56%

Compound: Cc1c(N)cc(-n2c(C)ccc2-c2cc(Br)ccc2OCc2ccccc2)cc1C(=O)O
IC50 [1]: 3.16 nM
